Assay results as given in the supplement of paper PMC4121296.

Key:
Settings in all cases: exposure: 5-72 hpf
[1] = system: Danio rerio embryo (fli1:egfp); assay: arterial (dorsal aorta) circulation score at 72 hpf (normalized DA-Max (arbitrary units)); higher = more circulation
Method: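 fli1:egfp zebrafish embryos exposed 5-72 hpf to chemical (0.05-50 µM, 0.1% DMSO); arterial circulation at 72 hpf quantified from stream acquisitions of the dorsal aorta by FFT-based analysis (DA-Max, normalized dorsal aorta signal); only concentrations passing survival/body-length criteria analyzed.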

[2] = system: Danio rerio embryo (fli1:egfp); assay: heart rate at 72 hpf (beats per minute); higher = faster heart rate
Method: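 fli1:egfp zebrafish embryos exposed 5-72 hpf to chemical (0.05-50 µM, 0.1% DMSO) in 384-well plates; heart rate at 72 hpf quantified from stream acquisitions by semi-automated MetaXpress journal (peak counting); only embryos in concentrations passing survival/body-length criteria analyzed.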

[3] = system: Danio rerio embryo (fli1:egfp); assay: intersegmental vessel area normalized to body length at 72 hpf (ISV area / body length (normalized units)); higher = more vessel area
Method: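 fli1:egfp zebrafish embryos exposed 5-72 hpf to chemical (0.05-50 µM, 0.1% DMSO); intersegmental vessel (ISV) eGFP area quantified by MetaXpress journal at 72 hpf and normalized to body length.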

[4] = system: Danio rerio embryo (fli1:egfp); assay: pericardial area at 72 hpf (image area units (not stated)); higher = larger pericardial area (edema)
Method: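 fli1:egfp zebrafish embryos exposed 5-72 hpf to chemical (0.05-50 µM, 0.1% DMSO); pericardial area at 72 hpf measured by semi-automated MetaXpress journal (increase indicates edema).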

[5] = system: Danio rerio embryo (fli1:egfp); assay: body length at 72 hpf (µm); higher = longer body (less growth inhibition)
Method: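 Transgenic fli1:egfp zebrafish embryos (one per well, 384-well plate) exposed statically from 5 to 72 hpf at 28 °C to chemical (0.05-50 µM, 0.1% DMSO); at 72 hpf anesthetized and imaged on ImageXpress; body length of live, hatched, correctly oriented embryos measured by automated MetaXpress journal. Dead/unhatched/misoriented embryos have no value.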

O=C(O)c1cc(Oc2ccc(C(F)(F)F)cc2Cl)ccc1[N+](=O)[O-] [Acifluorfen]
Settings	arterial, [1]	body length at 72 hpf, [5]	heart rate at 72 hpf, [2]	intersegmental vessel area normalized, [3]	pericardial area at 72 hpf, [4]
0.05 µM	16.3	2970	168	81.7	14900
0.098 µM	14.7	3000	169	82.8	17600
0.195 µM	14.4	3030	166	89.2	16700
0.39 µM	15.6	3000	168	82.3	16700
0.78 µM	14.4	2970	167	92.9	15600
1.56 µM	15.9	3040	164	82.3	16400
3.125 µM	15.2	3030	164	85.2	17500
6.25 µM	14.2	3030	177	89.2	19400
12.5 µM	16.1	3020	175	89.5	15900
25 µM	15.6	2960	175	89.3	15500
50 µM	14.5	2980	180	99.8	15800

C=C(C)[C@H]1Cc2c(ccc3c2O[C@@H]2COc4cc(OC)c(OC)cc4[C@@H]2C3=O)O1 [Rotenone]
0.05 µM
Settings	arterial	body length at 72 hpf	heart rate at 72 hpf	intersegmental vessel area normalized	pericardial area at 72 hpf
[1]	8.64	–	–	–	–
[2]	–	–	141	–	–
[3]	–	–	–	85.6	–
[4]	–	–	–	–	18800
[5]	–	3020	–	–	–

CCCCCOC(=O)COc1cc(N2C(=O)C3=C(CCCC3)C2=O)c(F)cc1Cl [Flumiclorac-pentyl]
Settings	arterial, [1]	body length at 72 hpf, [5]	heart rate at 72 hpf, [2]	intersegmental vessel area normalized, [3]	pericardial area at 72 hpf, [4]
0.05 µM	11.7	3040	166	55.7	14500
0.098 µM	10.9	2980	159	66.5	15200
0.195 µM	10.3	2960	166	62.8	16200
0.39 µM	10.7	2950	175	66.4	15300
0.78 µM	9.99	3000	170	60.7	15200
1.56 µM	11.6	3000	178	62.7	16100
3.125 µM	11	2990	182	61.8	17000
6.25 µM	8.2	2960	185	65.1	16400
12.5 µM	8.36	3000	182	69.4	17700

C=CCOC(=O)C(C)(C)OC(=O)c1cc(-n2c(=O)cc(C(F)(F)F)n(C)c2=O)ccc1Cl [Butafenacil]
Settings	arterial, [1]	body length at 72 hpf, [5]	heart rate at 72 hpf, [2]	intersegmental vessel area normalized, [3]	pericardial area at 72 hpf, [4]
0.05 µM	11.5	2960	182	72.8	15900
0.098 µM	11.8	2990	180	61.6	14800
0.195 µM	10.1	2960	191	70.6	16200
0.39 µM	7.84	3000	185	68.9	15700
0.78 µM	5.12	2970	172	55.9	18900
1.56 µM	5.32	2970	168	61.2	18800
3.125 µM	5.76	2980	175	69.3	18700
6.25 µM	4.56	3010	184	72.8	28100
12.5 µM	3.81	2860	163	81.2	36500

CCc1nn(C)c(C(=O)NCc2ccc(C(C)(C)C)cc2)c1Cl [Tebufenpyrad]
Settings	arterial, [1]	body length at 72 hpf, [5]	heart rate at 72 hpf, [2]	intersegmental vessel area normalized, [3]	pericardial area at 72 hpf, [4]
0.05 µM	9.08	2980	155	75.7	13400
0.098 µM	10.5	2960	166	75.9	13600
0.195 µM	10.6	2960	160	78.8	13000
0.39 µM	11.6	2990	166	76.5	14800
0.78 µM	14.2	2950	174	77	16300
